Data reported in patent US7858640B2, “Quinolines and their therapeutic use” (Pulmagen Therapeutics (Asthma) Limited, priority 2005, dated 2010).

Molecular target: T1, CRTH2 receptor (Homo sapiens, UniProt Q9Y5Y4)
T1 sequence (Q9Y5Y4 1-395): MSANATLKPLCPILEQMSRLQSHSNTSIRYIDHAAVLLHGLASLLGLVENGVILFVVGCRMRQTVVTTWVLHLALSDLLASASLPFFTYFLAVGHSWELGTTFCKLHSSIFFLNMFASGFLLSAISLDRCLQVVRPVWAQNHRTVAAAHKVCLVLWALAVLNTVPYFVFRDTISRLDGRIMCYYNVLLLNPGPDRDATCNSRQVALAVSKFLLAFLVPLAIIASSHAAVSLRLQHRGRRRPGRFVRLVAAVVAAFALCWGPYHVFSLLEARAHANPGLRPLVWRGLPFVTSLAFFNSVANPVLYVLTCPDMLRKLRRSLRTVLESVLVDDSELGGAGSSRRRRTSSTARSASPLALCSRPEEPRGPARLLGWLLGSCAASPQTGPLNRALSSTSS
Experiment: Radioligand binding assay ([3H]-PGD2 displacement, SPA)
Parameters: expressed in transfected cells; host or cells: HEK cell membranes
Conditions: HEK cell membranes expressing the CRTH2 receptor, 1 nM [3H]-PGD2; Ki from IC50 by Cheng-Prusoff
Description: Radioligand Binding Assay
The receptor binding assay is performed in a final volume of 200 μL binding buffer [10 mM BES (pH 7.4), 1 mM EDTA, 10 mM manganese chloride, 0.01% BSA] and 1 nM [^3H]-PGD2 (Amersham Biosciences UK Ltd). Ligands are added in assay buffer containing a constant amount of DMSO (1% by volume). Total binding is determined using 1% by volume of DMSO in assay buffer and non-specific binding is determined using 10 μM of unlabeled PGD2 (Sigma). Human embryonic kidney (HEK) cell membranes (3.5 μg) expressing the CRTH2 receptor are incubated with 1.5 mg wheatgerm agglutinin SPA beads and 1 nM [^3H]-PGD2 (Amersham Biosciences UK Ltd) and the mixture incubated for 3 hours at room temperature. Bound [^3H]-PGD2 is detected using a Microbeta TRILUX liquid scintillation counter (Perkin Elmer). Compound IC50 value is determined using a 6-point dose response curve in duplicate with a semi-log compound dilution series. IC50 calculations are performed using Excel and XLfit (Microsoft), and this value is used to determine a Ki value for the test compound using the Cheng-Prusoff equation.

Row | SMILES | Ki
1 | Cc1nc2c(Cl)ccc(OCC(=O)O)c2c(OC(F)F)c1Cc1ccc(S(C)(=O)=O)cc1Cl [Example 35, [8-chloro-3-(2-chloro-4-methanesulfonylbenzyl)-4-difluoro-methoxy-2-methylquinolin-5-yloxy]acetic Acid] | < 100 nM
2 | Cc1c(Cc2ccc(Cl)cc2Cl)c(OC(F)F)nc2c(F)ccc(O[C@H](C)C(=O)O)c12 [Example 70, (R)-2-[3-(2,4-dichlorobenzyl)-2-difluoromethoxy-8-fluoro-4-methylquinolin-5-yloxy]propionic Acid] | < 100 nM
3 | CCOc1nc2cc(C)cc(CC(=O)O)c2c(C)c1Cc1ccc(Cl)cc1 [Example 3, [3-(4-chlorobenzyl)-2-ethoxy-4,7-dimethylquinolin-5-yl]acetic Acid] | < 100 nM
4 | Cc1nc2cccc(OCC(=O)O)c2cc1Cc1ccc(Cl)cc1 [Example 79, [3-(4-chlorobenzyl)-2-methylquinolin-5-yloxy]acetic Acid] | < 10000 nM
5 | CCc1nc2c(Cl)ccc(OCC(=O)O)c2c(OC(F)F)c1Cc1ccc(S(C)(=O)=O)cc1 [Example 29, [8-chloro-4-difluoromethoxy-2-ethyl-3-(4-methanesulfonylbenzyl)-quinolin-5-yloxy]acetic acid] | < 100 nM
6 | Cc1nc2c(Cl)ccc(OCC(=O)O)c2c(C)c1Cc1ccc(S(C)(=O)=O)cc1Cl [Example 38, [8-chloro-3-(2-chloro-4-methanesulfonylbenzyl)-2,4-dimethylquinolin-5-yloxy]acetic Acid] | < 100 nM
7 | Cc1nc2c(Cl)ccc(OCC(=O)O)c2c(C)c1Sc1ccc(Cl)cc1 [Example 8, [8-chloro-3-(4-chlorophenylsulfanyl)-2,4-dimethylquinolin-5-yloxy]acetic Acid] | < 100 nM
8 | CCc1nc2c(F)ccc(O[C@@H](C)C(=O)O)c2c(OC(F)F)c1Cc1ccc(Cl)cc1Cl [Example 74, (S)-2-[3-(2,4-dichlorobenzyl)-4-difluoromethoxy-2-ethyl-8-fluoroquinolin-5-yloxy]propionic Acid] | < 100 nM
9 | CCc1nc2c(F)ccc(O[C@@H](C)C(=O)O)c2c(OC(F)F)c1Cc1ccc(C(=O)N2CCCC2)cc1Cl [Example 73, (S)-2-{3-[2-chloro-4-(pyrrolidine-1-carbonyl)benzyl]-4-difluoromethoxy-2-ethyl-8-fluoroquinolin-5-yloxy}propionic Acid] | < 100 nM
10 | Cc1nc2c(Cl)ccc(OCC(=O)NS(=O)(=O)c3ccccc3)c2c(C)c1Cc1ccc(Cl)cc1 [Example 14, N-{2-[8-chloro-3-(4-chlorobenzyl)-2,4-dimethylquinolin-5-yloxy]-acetyl}benzenesulfonamide] | < 10000 nM
11 | COc1c(Cc2ccc(Cl)cc2)c(C)nc2c(Cl)ccc(OCC(=O)O)c12 [Example 1, [8-chloro-3-(4-chlorobenzyl)-4-methoxy-2-methylquinolin-5-yloxy]acetic Acid] | < 100 nM
12 | Cc1c(Cc2ccc(F)cc2)c(OC(F)F)nc2c(F)ccc(OCC(=O)O)c12 [Example 52, [2-difluoromethoxy-8-fluoro-3-(4-fluorobenzyl)-4-methylquinolin-5-yloxy]acetic Acid] | < 100 nM
13 | CCc1nc2c(F)ccc(O[C@@H](C)C(=O)O)c2c(OC)c1Cc1ccc(Cl)cc1Cl [Example 75, (S)-2-[3-(2,4-dichlorobenzyl)-2-ethyl-8-fluoro-4-methoxyquinolin-5-yloxy]propionic Acid] | < 100 nM
14 | Cc1c(Cc2ccc(S(C)(=O)=O)cc2Cl)c(OC(F)F)nc2c(Cl)ccc(OCC(=O)O)c12 [Example 40, [8-chloro-3-(2-chloro-4-methanesulfonylbenzyl)-2-difluoromethoxy-4-methylquinolin-5-yloxy]acetic Acid] | < 100 nM
15 | Cc1nc2c(Cl)ccc(OCC(=O)O)c2cc1Cc1ccc(Cl)cc1 [Example 10, [8-chloro-3-(4-chlorobenzyl)-2-methylquinolin-5-yloxy]acetic Acid] | < 1000 nM
16 | Cc1cc(OCC(=O)O)c2c(C)c(Cc3ccc(Cl)cc3)cnc2c1 [Example 78, [3-(4-chlorobenzyl)-4,7-dimethylquinolin-5-yloxy]acetic Acid] | < 10000 nM
17 | Cc1c(Cc2ccc(S(C)(=O)=O)cc2)c(OC(F)F)nc2c(Cl)ccc(CC(=O)O)c12 [Example 36, [8-chloro-2-difluoromethoxy-3-(4-methanesulfonylbenzyl)-4-methylquinolin-5-yl]acetic Acid] | < 100 nM

Row | SMILES | Ki
18 | CCc1nc2c(F)ccc(OCC(=O)O)c2c(OC(F)F)c1Cc1ccc(F)cc1F [Example 53, [3-(2,4-difluorobenzyl)-4-difluoromethoxy-2-ethyl-8-fluoroquinolin-5-yloxy]acetic Acid] | < 100 nM
19 | CCc1nc2c(F)ccc(OCC(=O)O)c2c(OC(F)F)c1Cc1ccc(C(=O)N2CCCC2)cc1Cl [Example 72, {3-[2-chloro-4-(pyrrolidine-1-carbonyl)benzyl]-4-difluoromethoxy-2-ethyl-8-fluoroquinolin-5-yloxy}acetic Acid] | < 100 nM
20 | Cc1c(Cc2ccc(Cl)cc2Cl)c(OC(F)F)nc2c(F)ccc(OCC(=O)O)c12 [Example 51, [3-(2,4-dichlorobenzyl)-2-difluoromethoxy-8-fluoro-4-methylquinolin-5-yloxy]acetic Acid] | < 100 nM
21 | CCc1nc2c(F)ccc(OCC(=O)O)c2c(OC(F)F)c1Cc1ccc(S(=O)(=O)CC)cc1 [Example 60, [4-difluoromethoxy-3-(4-ethanesulfonylbenzyl)-2-ethyl-8-fluoroquinolin-5-yloxy]acetic Acid] | < 100 nM
22 | CCc1nc2c(Cl)ccc(OCC(=O)O)c2c(OC(F)F)c1Cc1ccc(F)cc1 [Example 37, [8-chloro-4-difluoromethoxy-2-ethyl-3-(4-fluorobenzyl)quinolin-5-yloxy]acetic Acid] | < 100 nM
23 | Cc1nc2c(Cl)ccc(OCC(=O)O)c2c(OC(F)F)c1Cc1ccc(S(C)(=O)=O)cc1 [Example 26, [8-chloro-4-difluoromethoxy-3-(4-methanesulfonylbenzyl)-2-methylquinolin-5-yloxy]acetic acid] | < 100 nM
24 | Cc1nc2c(Cl)ccc(CC(=O)O)c2c(C)c1Cc1ccc(S(C)(=O)=O)cc1 [Example 28, [8-chloro-3-(4-methanesulfonylbenzyl)-2,4-dimethylquinolin-5-yl]acetic acid] | < 1000 nM
25 | Cc1c(Cc2ccc(Cl)cc2Cl)c(OC(F)F)nc2c(F)ccc(O[C@@H](C)C(=O)O)c12 [Example 68, (S)-2-[3-(2,4-dichlorobenzyl)-2-difluoromethoxy-8-fluoro-4-methylquinolin-5-yloxy]propionic Acid] | < 100 nM
26 | Cc1c(Cc2ccc(F)cc2)c(OC(F)F)nc2c(Cl)ccc(OCC(=O)O)c12 [Example 19, [8-chloro-2-difluoromethoxy-3-(4-fluorobenzyl)-4-methylquinolin-5-yloxy]acetic acid] | < 100 nM
27 | Cc1c(Cc2ccc(F)cc2F)c(OC(F)F)nc2c(F)ccc(OCC(=O)O)c12 [Example 55, [3-(2,4-difluorobenzyl)-2-difluoromethoxy-8-fluoro-4-methylquinolin-5-yloxy]acetic acid] | < 100 nM
28 | Cc1c(Cc2ccc(Cl)cc2F)c(OC(F)F)nc2c(F)ccc(OCC(=O)O)c12 [Example 56, [3-(4-chloro-2-fluorobenzyl)-2-difluoromethoxy-8-fluoro-4-methylquinolin-5-yloxy]acetic Acid] | < 100 nM
29 | CCc1nc2c(F)ccc(OCC(=O)O)c2c(OC(F)F)c1Cc1ccc(Cl)cc1Cl [Example 54, [3-(2,4-dichlorobenzyl)-4-difluoromethoxy-2-ethyl-8-fluoroquinolin-5-yloxy]acetic acid] | < 100 nM
30 | CCc1nc2c(F)ccc(OCC(=O)O)c2c(OC(F)F)c1Cc1ccc(Cl)cc1F [Example 63, [3-(4-chloro-2-fluorobenzyl)-4-difluoromethoxy-2-ethyl-8-fluoroquinolin-5-yloxy]acetic acid] | < 100 nM
31 | Cc1nc2c(Cl)ccc(OCC(=O)O)c2c(C)c1Cc1ccc(Cl)cc1 [Example 2, [8-chloro-3-(4-chlorobenzyl)-2,4-dimethylquinolin-5-yloxy]acetic Acid] | < 100 nM
32 | CCc1nc2c(F)ccc(OCC(=O)O)c2c(OC(F)F)c1Cc1ccc(Cl)cc1 [Example 49, [3-(4-chlorobenzyl)-4-difluoromethoxy-2-ethyl-8-fluoroquinolin-5-yloxy]acetic Acid] | < 100 nM
33 | Cc1nc2c(Cl)ccc(OCC(=O)NS(C)(=O)=O)c2c(C)c1Cc1ccc(Cl)cc1 [Example 13, N-{2-[8-chloro-3-(4-chlorobenzyl)-2,4-dimethylquinolin-5-yloxy]-acetyl}methanesulfonamide] | < 1000 nM
34 | Cc1cc(CC(=O)O)c2c(C)c(Cc3ccc(Cl)cc3)c(C)nc2c1 [Example 5, [3-(4-chlorobenzyl)-2,4,7-trimethylquinolin-5-yl]acetic Acid] | < 1000 nM
